# Active and inactive are the calls of the source. The rule behind the calls is not given here.
# System: CCRIS mutagenicity, Ames/micronucleus/aberration tests
# Assay: CCRIS mutagenicity studies
# [1] = Test System: AMES SALMONELLA TYPHIMURIUM, Strain/Indicator: TA98, Metabolic Activation: NONE, Method: PREINCUBATION
# [2] = Test System: AMES SALMONELLA TYPHIMURIUM, Strain/Indicator: TA98, Metabolic Activation: RAT, LIVER, S-9, PHENOBARBITAL AND 5,6-BENZOFLAVONE, Method: PREINCUBATION
# [3] = Test System: AMES SALMONELLA TYPHIMURIUM, Strain/Indicator: TA100, Metabolic Activation: NONE, Method: PREINCUBATION
# [4] = Test System: AMES SALMONELLA TYPHIMURIUM, Strain/Indicator: TA100, Metabolic Activation: RAT, LIVER, S-9, PHENOBARBITAL AND 5,6-BENZOFLAVONE, Method: PREINCUBATION
# [5] = Test System: AMES SALMONELLA TYPHIMURIUM, Strain/Indicator: TA98, Metabolic Activation: NONE, Method: STANDARD PLATE
# [6] = Test System: AMES SALMONELLA TYPHIMURIUM, Strain/Indicator: TA98, Metabolic Activation: RAT, LIVER, S-9, AROCLOR 1254, Method: STANDARD PLATE
# [7] = Test System: AMES SALMONELLA TYPHIMURIUM, Strain/Indicator: TA100, Metabolic Activation: NONE, Method: STANDARD PLATE
smiles,measurement,setting,value
O=C(O)C(Cl)(Cl)Cl,mutagenic call,"End Point: IN VIVO MICRONUCLEUS, Test System: BONE MARROW POLYCHROMATIC ERYTHROCYTES, Species: MOUSE, Strain/Sex: C57BL/6JFBL10/ALPK/FEMALE, Route: IP INJECTION 2 TIMES AT 24 HR INTERVAL",inactive; negative
same,mutagenic call,"End Point: IN VIVO MICRONUCLEUS, Test System: BONE MARROW POLYCHROMATIC ERYTHROCYTES, Species: MOUSE, Strain/Sex: C57BL/6JFBL10/ALPK/MALE, Route: IP INJECTION 2 TIMES AT 24 HR INTERVAL",inactive; negative; a statistically significant increase was observed at 675 mg/kg after 2
same,mutagenic call,"Test System: AMES SALMONELLA TYPHIMURIUM, Strain/Indicator: RSJ100, Metabolic Activation: NONE, Method: PREINCUBATION",inactive; negative
same,mutagenic call,"Test System: AMES SALMONELLA TYPHIMURIUM, Strain/Indicator: RSJ100, Metabolic Activation: RAT LIVER S-9, Method: PREINCUBATION",inactive; negative
same,mutagenic call,[1],inactive; negative
same,mutagenic call,"Test System: AMES SALMONELLA TYPHIMURIUM, Strain/Indicator: TA98, Metabolic Activation: RAT LIVER S-9, Method: PREINCUBATION",inactive; negative
same,mutagenic call,[2],inactive; negative
same,mutagenic call,"Test System: AMES SALMONELLA TYPHIMURIUM, Strain/Indicator: TA100, Metabolic Activation: NONE, Method: BAG VAPORIZATION",inactive; negative
same,mutagenic call,"Test System: AMES SALMONELLA TYPHIMURIUM, Strain/Indicator: TA100, Metabolic Activation: NONE, Method: FLUCTUATION TEST",active; positive
same,mutagenic call,[3],inactive; negative
same,mutagenic call,"Test System: AMES SALMONELLA TYPHIMURIUM, Strain/Indicator: TA100, Metabolic Activation: RAT LIVER S-9, Method: PREINCUBATION",inactive; negative
same,mutagenic call,"Test System: AMES SALMONELLA TYPHIMURIUM, Strain/Indicator: TA100, Metabolic Activation: RAT, LIVER, S-9, AROCLOR 1254, Method: BAG VAPORIZATION",inactive; negative
same,mutagenic call,"Test System: AMES SALMONELLA TYPHIMURIUM, Strain/Indicator: TA100, Metabolic Activation: RAT, LIVER, S-9, AROCLOR 1254, Method: FLUCTUATION TEST",active; positive
same,mutagenic call,[4],inactive; negative
same,mutagenic call,"Test System: AMES SALMONELLA TYPHIMURIUM, Strain/Indicator: TA102, Metabolic Activation: NONE, Method: STANDARD PLATE",inactive; negative
same,mutagenic call,"Test System: AMES SALMONELLA TYPHIMURIUM, Strain/Indicator: TA102, Metabolic Activation: RAT LIVER S-9, AROCLOR 1254, Method: STANDARD PLATE",inactive; negative
same,mutagenic call,"Test System: MOUSE LYMPHOMA, Strain/Indicator: L5178Y (TK+/TK- -3.7.2C), Metabolic Activation: S-9",active; positive
COc1cc(O)c2c(=O)c3cc(O)ccc3oc2c1,mutagenic call,"Test System: AMES SALMONELLA TYPHIMURIUM, Strain/Indicator: TA97, Metabolic Activation: RAT, LIVER, S-9, PHENOBARBITAL AND 5,6-BENZOFLAVONE, Method: PREINCUBATION",active; positive
same,mutagenic call,[2],inactive; negative
same,mutagenic call,[4],inactive; negative
same,mutagenic call,"Test System: AMES SALMONELLA TYPHIMURIUM, Strain/Indicator: TA2637, Metabolic Activation: RAT, LIVER, S-9, 5,6-BENZOFLAVONE AND/OR SODIUM PHENOBARBITAL, Method: PREINCUBATION",active; positive
same,mutagenic call,"Test System: AMES SALMONELLA TYPHIMURIUM, Strain/Indicator: TA2637, Metabolic Activation: RAT, LIVER, S-9, PHENOBARBITAL AND 5,6-BENZOFLAVONE, Method: PREINCUBATION",active; positive
same,mutagenic call,"Test System: AMES SALMONELLA TYPHIMURIUM, Strain/Indicator: TA2637, Metabolic Activation: RAT, LIVER, S-105, 5,6-BENZOFLAVONE AND/OR SODIUM PHENOBARBITAL, Method: PREINCUBATION",inactive; negative
COc1c2cc3c(cc2nc2occc12)OCO3,mutagenic call,"Test System: AMES SALMONELLA TYPHIMURIUM, Strain/Indicator: TA98, Metabolic Activation: RAT, LIVER, S-9, PHENOBARBITAL, Method: STANDARD PLATE",active; positive
same,mutagenic call,"Test System: AMES SALMONELLA TYPHIMURIUM, Strain/Indicator: TA100, Metabolic Activation: RAT, LIVER, S-9, PHENOBARBITAL, Method: STANDARD PLATE",active; positive
Nc1ccc(Oc2ccc(N)c(N)c2)cc1,mutagenic call,[1],inactive; negative
same,mutagenic call,"Test System: AMES SALMONELLA TYPHIMURIUM, Strain/Indicator: TA98, Metabolic Activation: RAT, LIVER, S-9, PCB, Method: PREINCUBATION",active; positive
same,mutagenic call,[3],inactive; negative
same,mutagenic call,"Test System: AMES SALMONELLA TYPHIMURIUM, Strain/Indicator: TA100, Metabolic Activation: RAT, LIVER, S-9, PCB, Method: PREINCUBATION",active; positive
O=[N+]([O-])c1cc(C(F)(F)F)cc([N+](=O)[O-])c1O,mutagenic call,[5],inactive; negative
same,mutagenic call,[6],inactive; negative
same,mutagenic call,[7],inactive; negative
same,mutagenic call,"Test System: AMES SALMONELLA TYPHIMURIUM, Strain/Indicator: TA100, Metabolic Activation: RAT, LIVER, S-9, AROCLOR 1254, Method: STANDARD PLATE",inactive; negative
same,mutagenic call,"Test System: AMES SALMONELLA TYPHIMURIUM, Strain/Indicator: TA1535, Metabolic Activation: NONE, Method: STANDARD PLATE",inactive; negative
same,mutagenic call,"Test System: AMES SALMONELLA TYPHIMURIUM, Strain/Indicator: TA1535, Metabolic Activation: RAT, LIVER, S-9, AROCLOR 1254, Method: STANDARD PLATE",inactive; negative
same,mutagenic call,"Test System: AMES SALMONELLA TYPHIMURIUM, Strain/Indicator: TA1537, Metabolic Activation: NONE, Method: STANDARD PLATE",inactive; negative
same,mutagenic call,"Test System: AMES SALMONELLA TYPHIMURIUM, Strain/Indicator: TA1537, Metabolic Activation: RAT, LIVER, S-9, AROCLOR 1254, Method: STANDARD PLATE",inactive; negative
same,mutagenic call,"Test System: AMES SALMONELLA TYPHIMURIUM, Strain/Indicator: TA1538, Metabolic Activation: NONE, Method: STANDARD PLATE",inactive; negative
same,mutagenic call,"Test System: AMES SALMONELLA TYPHIMURIUM, Strain/Indicator: TA1538, Metabolic Activation: RAT, LIVER, S-9, AROCLOR 1254, Method: STANDARD PLATE",inactive; negative
O=C1O[C@@H]2[C@@H](O)CO[C@]2(O)[C@@]1(O)Cc1c[nH]c2ccccc12,mutagenic call,[5],inactive; negative
same,mutagenic call,"Test System: AMES SALMONELLA TYPHIMURIUM, Strain/Indicator: TA98, Metabolic Activation: RAT, LIVER, S-9, PCB, Method: STANDARD PLATE",inactive; negative
same,mutagenic call,[7],inactive; negative
same,mutagenic call,"Test System: AMES SALMONELLA TYPHIMURIUM, Strain/Indicator: TA100, Metabolic Activation: RAT, LIVER, S-9, PCB, Method: STANDARD PLATE",inactive; negative
Nc1cnc2c(c1)nc1ccccn12,mutagenic call,[5],inactive; negative
same,mutagenic call,"Test System: AMES SALMONELLA TYPHIMURIUM, Strain/Indicator: TA98, Metabolic Activation: RAT, LIVER, CYTOSOL, AROCLOR 1254, Method: STANDARD PLATE",inactive; negative
same,mutagenic call,"Test System: AMES SALMONELLA TYPHIMURIUM, Strain/Indicator: TA98, Metabolic Activation: RAT, LIVER, MICROSOMES, AROCLOR 1254, Method: STANDARD PLATE",inactive; negative
same,mutagenic call,[6],active; positive
O[C@H]1C=Cc2cccnc2[C@@H]1O,mutagenic call,[7],inactive; negative
same,mutagenic call,"Test System: AMES SALMONELLA TYPHIMURIUM, Strain/Indicator: TA100, Metabolic Activation: RAT, LIVER, S-9, AROCLOR 1254 (10 OR 20%), Method: STANDARD PLATE",inactive; negative
BrCc1ccc(CBr)cc1,mutagenic call,[5],inactive; negative
same,mutagenic call,[7],inactive; negative
O=CN(O)c1ccc(Oc2ccc(Cl)cc2)cc1,mutagenic call,[7],inactive; negative
same,mutagenic call,"Test System: AMES SALMONELLA TYPHIMURIUM, Strain/Indicator: TA100, Metabolic Activation: RAT, LIVER, S-9, KANECLOR 500, Method: STANDARD PLATE",active; positive
